Data as given in PMC8317212 (Journal of medicinal chemistry, 2016).
Structures can show the parent of a compound that is named as a salt. Where two headings read alike, the source gives them in different places.

Assays:
Type in all cases: cell-based
human 5-HT2C-INI = molecular target: T1, human 5-HT2C-INI (Homo sapiens, UniProt P28335); experiment: FLIPR calcium flux assay, 5-HT2C; conditions: for EC50: read-out: EC50, nM 5-HT2C, FLIPR, HEK-293 cells stably expressing human receptor
T1 sequence (P28335 33-458): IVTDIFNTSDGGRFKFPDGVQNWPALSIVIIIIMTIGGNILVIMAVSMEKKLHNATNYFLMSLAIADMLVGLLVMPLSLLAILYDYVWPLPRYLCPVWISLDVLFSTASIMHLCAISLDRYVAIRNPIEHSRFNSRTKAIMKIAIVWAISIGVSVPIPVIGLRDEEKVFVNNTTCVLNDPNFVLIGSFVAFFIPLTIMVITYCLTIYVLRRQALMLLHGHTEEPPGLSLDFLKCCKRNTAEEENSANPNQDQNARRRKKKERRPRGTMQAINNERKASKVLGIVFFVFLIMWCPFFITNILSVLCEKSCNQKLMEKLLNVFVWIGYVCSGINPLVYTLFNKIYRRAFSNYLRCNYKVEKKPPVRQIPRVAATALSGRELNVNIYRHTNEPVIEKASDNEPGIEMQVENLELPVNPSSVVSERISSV

human 5-HT2B = human 5-HT2B (Homo sapiens, UniProt P41595); experiment: FLIPR calcium flux assay, 5-HT2B; conditions: for Emax 5-HT2B: HEK-293 cells stably expressing human receptor
human 5-HT2A = human 5-HT2A (Homo sapiens, UniProt P28223); experiment: FLIPR calcium flux assay, 5-HT2A
[1] = EC50, nM 5-HT2B, FLIPR, HEK-293 cells, NA = no activity (Emax < 15%) at 10 μM

Sequence of human 5-HT2B (P41595 whole entry): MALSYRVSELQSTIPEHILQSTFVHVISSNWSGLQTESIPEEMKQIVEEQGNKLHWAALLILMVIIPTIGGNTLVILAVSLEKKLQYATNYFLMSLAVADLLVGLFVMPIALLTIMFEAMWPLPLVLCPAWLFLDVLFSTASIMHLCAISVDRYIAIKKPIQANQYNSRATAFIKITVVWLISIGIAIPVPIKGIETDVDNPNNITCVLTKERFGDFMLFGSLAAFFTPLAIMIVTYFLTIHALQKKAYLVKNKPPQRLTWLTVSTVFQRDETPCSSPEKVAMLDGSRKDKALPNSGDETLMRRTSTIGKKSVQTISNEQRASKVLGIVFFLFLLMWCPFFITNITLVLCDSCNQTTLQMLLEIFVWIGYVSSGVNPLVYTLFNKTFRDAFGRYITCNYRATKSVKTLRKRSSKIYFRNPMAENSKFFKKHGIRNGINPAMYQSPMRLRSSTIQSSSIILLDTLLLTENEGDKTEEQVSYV
Sequence of human 5-HT2A (P28223 whole entry): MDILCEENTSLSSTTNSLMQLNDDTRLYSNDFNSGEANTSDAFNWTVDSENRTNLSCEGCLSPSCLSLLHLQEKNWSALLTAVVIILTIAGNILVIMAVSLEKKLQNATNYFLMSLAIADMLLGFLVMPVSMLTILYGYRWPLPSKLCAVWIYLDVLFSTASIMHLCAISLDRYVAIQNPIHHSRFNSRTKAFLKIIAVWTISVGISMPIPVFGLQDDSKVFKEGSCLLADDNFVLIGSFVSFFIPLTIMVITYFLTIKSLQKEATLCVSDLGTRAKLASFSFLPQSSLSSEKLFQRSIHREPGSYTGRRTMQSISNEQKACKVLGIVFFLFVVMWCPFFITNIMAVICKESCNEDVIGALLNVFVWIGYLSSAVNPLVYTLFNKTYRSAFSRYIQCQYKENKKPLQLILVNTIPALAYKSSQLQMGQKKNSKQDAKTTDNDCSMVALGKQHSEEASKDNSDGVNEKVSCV

Row | SMILES | EC50 (human 5-HT2C-INI) [nM] | EC50, nM 5-HT2A (human 5-HT2A) | also measured
1 | COc1ccc(Cl)c(Cl)c1C1CC1CN.Cl (single isomer, unassigned; (+)) [(+)-20f, (+)-[2-(2,3-Dichloro-6-methoxyphenyl)cyclopropyl]methanamine Hydrochloride] |  |  | fold weaker at 5-HT2C than its enantiomer (human 5-HT2C-INI; compared to the (–)-enantiomer): 20 fold; Emax 5-HT2B (human 5-HT2B; FLIPR): 46%; Emax 5-HT2A (human 5-HT2A; FLIPR, HEK-293 cells stably expressing human receptor): 76%
2 | COc1ccc(F)c(Cl)c1C1CC1CN.Cl (single isomer, unassigned; (+)) [(+)-20g, (+)-[2-(2-Chloro-3-fluoro-6-methoxyphenyl)cyclopropyl]methanamine Hydrochloride] |  |  | Emax 5-HT2B (human 5-HT2B; FLIPR): 60%
3 | NCC1CC1c1cc(F)c(F)cc1OCCF (single isomer, unassigned; (+)) [(+)-21a, (+)-[2-[4,5-Difluoro-2-(2-fluoroethoxy)phenyl]cyclopropyl]methanamine Hydrochloride] | 7.3 |  | 
4 | NCC1CC1c1c(OCCF)ccc(F)c1F (single isomer, unassigned; (+)) [(+)-21b, (+)-[2-[2,3-Difluoro-6-(2-fluoroethoxy)phenyl]cyclopropyl]methanamine Hydrochloride] | 25 |  | 
5 | NCC1CC1c1cc(Cl)c(F)cc1OCCF (single isomer, unassigned; (+)) [(+)-21c, (+)-[2-[5-Chloro-4-fluoro-2-(2-fluoroethoxy)phenyl]cyclopropyl]methanamine Hydrochloride] | 24 |  | EC50 (human 5-HT2B; read-out: EC50, nM 5-HT2B): 506 nM
6 | Cl.NCC1CC1c1c(OCCF)ccc(Cl)c1F (single isomer, unassigned; (+)) [(+)-21d, (+)-[2-[3-Chloro-2-fluoro-6-(2-fluoroethoxy)phenyl]cyclopropyl]methanamine Hydrochloride] | 71 |  | EC50, nM 5-HT2B (human 5-HT2B): NA (no activity (Emax < 15%) at 10 μM)
7 | NCC1CC1c1cc(Cl)c(Cl)cc1OCCF (single isomer, unassigned; (+)) [(+)-21e, (+)-[2-[4,5-Dichloro-2-(2-fluoroethoxy)phenyl]cyclopropyl]methanamine Hydrochloride] | 18 |  | EC50 (human 5-HT2B; [1]): > 10000 nM
8 | Cl.NCC1CC1c1c(OCCF)ccc(Cl)c1Cl (single isomer, unassigned; (+)) [(+)-21f, (+)-[2-[2,3-Dichloro-6-(2-fluoroethoxy)phenyl]cyclopropyl]methanamine Hydrochloride] |  |  | Emax 5-HT2B (human 5-HT2B; FLIPR): 99%
9 | NCC1CC1c1c(OCCF)ccc(F)c1Cl (single isomer, unassigned; (+)) [(+)-21g, (+)-[2-[2-Chloro-3-fluoro-6-(2-fluoroethoxy)phenyl]cyclopropyl]methanamine Hydrochloride] | 49 |  | 
10 | C=CCOc1ccc(F)c(F)c1C1CC1CN.Cl (single isomer, unassigned; (+)) [(+)-22b, (+)-[2-[6-(Allyloxy)-2,3-difluorophenyl]cyclopropyl]methanamine hydrochloride] | 36 | NA (no activity (Emax < 15%) at 10 μM) | EC50 (human 5-HT2B; read-out: EC50, nM 5-HT2B): 3340 nM
11 | C=CCOc1cc(F)c(Cl)cc1C1CC1CN.Cl (single isomer, unassigned; (+)) [(+)-22c, (+)-[2-[2-(Allyloxy)-5-chloro-4-fluorophenyl]cyclopropyl]methanamine Hydrochloride] | 42 |  | Emax 5-HT2B (human 5-HT2B; FLIPR): 44%
12 | C=CCOc1ccc(Cl)c(F)c1C1CC1CN.Cl (single isomer, unassigned; (+)) [(+)-22d, (+)-[2-[6-(Allyloxy)-3-chloro-2-fluorophenyl]cyclopropyl]methanamine Hydrochloride] | 116 | NA (no activity (Emax < 15%) at 10 μM) | 
13 | C=CCOc1cc(Cl)c(Cl)cc1C1CC1CN (single isomer, unassigned; (+)) [(+)-22e, (+)-[2-[2-(Allyloxy)-4,5-dichlorophenyl]cyclopropyl]methanamine Hydrochloride] | 61 |  | 
14 | C=CCOc1ccc(Cl)c(Cl)c1C1CC1CN.Cl (single isomer, unassigned; (+)) [(+)-22f, (+)-[2-[6-(Allyloxy)-2,3-dichlorophenyl]cyclopropyl]methanamine Hydrochloride] |  | NA (no activity (Emax < 15%) at 10 μM) | EC50, nM 5-HT2B (human 5-HT2B): NA (no activity (Emax < 15%) at 10 μM)
15 | C=CCOc1ccc(F)c(Cl)c1C1CC1CN.Cl (single isomer, unassigned; (+)) [(+)-22g, (+)-[2-[6-(Allyloxy)-2-chloro-3-fluorophenyl]cyclopropyl]methanamine Hydrochloride] |  | NA (no activity (Emax < 15%) at 10 μM) | 
16 | COc1ccc(Cl)c(Cl)c1C1CC1CN.Cl (single isomer, unassigned; (-)) [(–)-20f, (–)-[2-(2,3-Dichloro-6-methoxyphenyl)cyclopropyl]methanamine Hydrochloride] |  |  | selectivity over 5-HT2B (human 5-HT2B; 5-HT2C vs 5-HT2B): 50 fold
17 | Cl.NCC1CC1c1cc(F)c(F)cc1OCCF (single isomer, unassigned; (-)) [(–)-21a, (–)-[2-[4,5-Difluoro-2-(2-fluoroethoxy)phenyl]cyclopropyl]methanamine Hydrochloride] |  | NA (no activity (Emax < 15%) at 10 μM) | EC50, nM 5-HT2B (human 5-HT2B): NA (no activity (Emax < 15%) at 10 μM)
18 | Cl.NCC1CC1c1c(OCCF)ccc(F)c1F (single isomer, unassigned; (-)) [(–)-21b, (–)-[2-[2,3-Difluoro-6-(2-fluoroethoxy)phenyl]cyclopropyl]methanamine Hydrochloride] |  | NA (no activity (Emax < 15%) at 10 μM) | 
19 | Cl.NCC1CC1c1cc(Cl)c(F)cc1OCCF (single isomer, unassigned; (-)) [(–)-21c, (–)-[2-[5-Chloro-4-fluoro-2-(2-fluoroethoxy)phenyl]cyclopropyl]methanamine Hydrochloride] |  | NA (no activity (Emax < 15%) at 10 μM) | 
20 | Cl.NCC1CC1c1c(OCCF)ccc(Cl)c1F (single isomer, unassigned; (-)) [(–)-21d, (–)-[2-[3-Chloro-2-fluoro-6-(2-fluoroethoxy)phenyl]cyclopropyl]methanamine Hydrochloride] |  | NA (no activity (Emax < 15%) at 10 μM) | EC50, nM 5-HT2B (human 5-HT2B): NA (no activity (Emax < 15%) at 10 μM)
21 | Cl.NCC1CC1c1cc(Cl)c(Cl)cc1OCCF (single isomer, unassigned; (-)) [(–)-21e, (–)-[2-[4,5-Dichloro-2-(2-fluoroethoxy)phenyl]cyclopropyl]methanamine Hydrochloride] |  | NA (no activity (Emax < 15%) at 10 μM) | EC50, nM 5-HT2B (human 5-HT2B): NA (no activity (Emax < 15%) at 10 μM)
22 | Cl.NCC1CC1c1c(OCCF)ccc(Cl)c1Cl (single isomer, unassigned; (-)) [(–)-21f, (–)-[2-[2,3-Dichloro-6-(2-fluoroethoxy)phenyl]cyclopropyl]methanamine Hydrochloride] |  | NA (no activity (Emax < 15%) at 10 μM) | EC50 (human 5-HT2B; [1]): > 10000 nM; Emax 5-HT2B (human 5-HT2B; FLIPR): 62%
23 | Cl.NCC1CC1c1c(OCCF)ccc(F)c1Cl (single isomer, unassigned; (-)) [(–)-21g, (–)-[2-[2-Chloro-3-fluoro-6-(2-fluoroethoxy)phenyl]cyclopropyl]methanamine Hydrochloride] |  | NA (no activity (Emax < 15%) at 10 μM) | Emax 5-HT2B (human 5-HT2B; FLIPR): 29%
24 | C=CCOc1ccc(F)c(F)c1C1CC1CN.Cl (single isomer, unassigned; (-)) [(–)-22b, (–)-[2-[6-(Allyloxy)-2,3-difluorophenyl]cyclopropyl]methanamine hydrochloride] |  | NA (no activity (Emax < 15%) at 10 μM) | 
25 | C=CCOc1cc(F)c(Cl)cc1C1CC1CN.Cl (single isomer, unassigned; (-)) [(–)-22c, (–)-[2-[2-(Allyloxy)-5-chloro-4-fluorophenyl]cyclopropyl]methanamine Hydrochloride] |  | NA (no activity (Emax < 15%) at 10 μM) | 
26 | C=CCOc1ccc(Cl)c(F)c1C1CC1CN.Cl (single isomer, unassigned; (-)) [(–)-22d, (–)-[2-[6-(Allyloxy)-3-chloro-2-fluorophenyl]cyclopropyl]methanamine Hydrochloride] |  |  | EC50, nM 5-HT2B (human 5-HT2B): NA (no activity (Emax < 15%) at 10 μM)
27 | C=CCOc1cc(Cl)c(Cl)cc1C1CC1CN.Cl (single isomer, unassigned; (-)) [(–)-22e, (–)-[2-[2-(Allyloxy)-4,5-dichlorophenyl]cyclopropyl]methanamine Hydrochloride] |  | NA (no activity (Emax < 15%) at 10 μM) | EC50, nM 5-HT2B (human 5-HT2B): NA (no activity (Emax < 15%) at 10 μM)
28 | C=CCOc1ccc(F)c(Cl)c1C1CC1CN.Cl (single isomer, unassigned; (-)) [(–)-22g, (–)-[2-[6-(Allyloxy)-2-chloro-3-fluorophenyl]cyclopropyl]methanamine Hydrochloride] |  | NA (no activity (Emax < 15%) at 10 μM) | 
